The subject of this assay is 4T1 spheres. As to the kind of experiment: 3D sphere co-culture assay, 4T1 spheres with T-cells and/or macrophages. It is filed as cell-based, mouse. The following applies: for cleaved caspase-3 in 4T1 cells: 24 hours. On the procedure: T-cells were isolated from the spleens of naïve mice, activated by CD3/CD28, and treated with either 1 μM iTEAD or vehicle. Peritoneal macrophages were isolated from the peritoneal lavage of naïve mice after attachment on culture dishes and treated with either 1 μM iTEAD or vehicle. The immune cells were mixed with tumor cells that were aggregated into spheres in u-shaped molds for 24 hours (FIG. 7).
To investigate whether the effect of iTEAD treatment on macrophages can enhance their crosstalk with T-cells in the lung microenvironment, peritoneal macrophages+/−iTEAD were first isolated and characterized as a model of resident macrophages for ex vivo experiments (FIG. 14, Panel A). It was observed that treatment with VT107 decreased gene expression of M2-like and fibrosis regulators, Aldh1a1 and Cc117 (Chen et al., 2020), as well as TEAD4 and its downstream target gene Ankrd1. […] The iTEAD pretreated peritoneal macrophages and untreated T-cells isolated from the spleen of tumor naïve mice (FIG. 14, Panel A) were then mixed for 5 hours before collecting the conditioned media for analysis. […] Next, these immune cell mixes were added to 4T1 spheres that were embedded into matrix. […] This effect was reversed by an IL12 neutralizing antibody. No change in cleaved caspase-3 in 4T1 cells in the presence of VT107-treated T-cells or macrophages alone, was detected at 24 hours (FIG. 14, Panels C and D). 4T1 cells were then plated and allowed to attach on electrode-coated arrays to monitor cancer cell viability before the addition of macrophages+/−iTEAD and T-cells. […] This reversal of T-cell cytotoxicity by IL12 antibodies was not observed in VT107-treated T-cells in the absence of macrophages (FIG. 15, Panel E) indicating a critical role for IL12 in the crosstalk between macrophages and T-cells.
The hippo pathway has been implicated in T-cell development and function (Du et al., 2014; Ueda et al., 2012). For example, YAP expression is essential for tumor immune suppression by Treg cells that attenuates CD8 T-cell immunity (Geng et al., 2017; Ni et al., 2018; Lebid et al., 2020). […] To investigate whether VT107 directly affected T-cells, T-cells treated with VT107 were co-cultured with 4T1 cells in 2D for 72 hours. […] To further confirm T-cell activation upon TEAD activity reduction, we used Jurkat cells, a CD4 positive human lymphoma cell line (Schneider et al., 1977). […] However, here we show the specific effect of TEAD reduction on granzyme gene expression and degranulation that result in the killing of cancer cells.
One thousand 4T1 cells were aggregated in 81-well agarose molds (Microtissues, #Z764019). […] Images were captured using the Olympus BX40 microscope, and DAB signal per sphere was quantified in imageJ and normalized to the number of nuclei. […]

Turning to VT107, the “cleaved caspase-3 in 4T1 cells” value (VT107-treated T-cells or macrophages alone) is recorded as “No change”; the “cleaved caspase-3 in 4T1 cells” value (iTEAD-treated macrophages and T-cells, spheres in matrix) is given as “elevated signal”. The “cleaved caspase-3 IHC staining of 4T1 spheres” value (co-culture with T-cells treated with 1 μM VT107, 72 hours) is “increased”. For the same substance, where the note is “co-culture with T-cells treated with 1 μM VT107, 72 hours vs vehicle”, the “number of 4T1 cells per sphere” value is reported as “significantly reduced”.

Source of the values: patent US20250352524A1, “PREVENTION OF METASTATIC OUTGROWTH USING TEAD INHIBITORS” (Georgetown University, priority 2024, published 2025).
